From ChEMBL document CHEMBL3526047, “Excretion, metabolism, and pharmacokinetics of 1-(8-(2-chlorophenyl)-9-(4-chlorophenyl)-9H-purin-6-yl)-4-(ethylamino)piperidine-4-carboxamide, a selective cannabinoid receptor antagonist, in healthy male volunteers” (Drug Metab Dispos, 2012)
Blank lines part the entries; values can stand above or below the molecule they belong to.

Tests used:
[1] = target: T1, Cytochrome P450 2C8 (Homo sapiens, UniProt P10632); assay: Drug metabolism assessed as human recombinant CYP2C8-mediated metabolite formation at 10 uM after 60 mins by HPLC method; format: ADME; details: recombinant enzyme, 1 h
T1 sequence (P10632 whole entry): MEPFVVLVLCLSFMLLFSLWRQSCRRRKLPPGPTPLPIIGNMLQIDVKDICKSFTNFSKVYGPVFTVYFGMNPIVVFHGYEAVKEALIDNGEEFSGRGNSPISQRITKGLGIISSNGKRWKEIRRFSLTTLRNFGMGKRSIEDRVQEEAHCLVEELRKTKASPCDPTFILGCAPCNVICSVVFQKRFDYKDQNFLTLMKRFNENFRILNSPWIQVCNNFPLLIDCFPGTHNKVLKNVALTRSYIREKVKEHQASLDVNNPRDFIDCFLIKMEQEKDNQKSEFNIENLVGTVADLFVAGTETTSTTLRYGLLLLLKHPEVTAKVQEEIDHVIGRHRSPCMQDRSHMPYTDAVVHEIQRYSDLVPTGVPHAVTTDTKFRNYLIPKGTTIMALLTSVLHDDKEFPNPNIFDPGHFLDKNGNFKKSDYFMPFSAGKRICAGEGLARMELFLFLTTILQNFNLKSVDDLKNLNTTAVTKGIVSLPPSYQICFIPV

[2] = tested on: Homo sapiens; assay: Cmax in healthy obese adult male human assessed as total radioactivity at 25 mg, po administered as single dose; format: ADME, organism-based; set-up: dose 25 mg, route oral; details: in vivo
[3] = species: Rattus norvegicus; assay: Drug recovery in rat; format: ADME, organism-based; details: in vivo
[4] = target: Cytochrome P450 2C19 (Homo sapiens, UniProt P33261); assay: Drug metabolism assessed as human recombinant CYP2C19-mediated metabolite formation at 10 uM after 60 mins by HPLC method; format: ADME; details: recombinant enzyme, 1 h
Cytochrome P450 2C19, sequence (P33261 whole entry): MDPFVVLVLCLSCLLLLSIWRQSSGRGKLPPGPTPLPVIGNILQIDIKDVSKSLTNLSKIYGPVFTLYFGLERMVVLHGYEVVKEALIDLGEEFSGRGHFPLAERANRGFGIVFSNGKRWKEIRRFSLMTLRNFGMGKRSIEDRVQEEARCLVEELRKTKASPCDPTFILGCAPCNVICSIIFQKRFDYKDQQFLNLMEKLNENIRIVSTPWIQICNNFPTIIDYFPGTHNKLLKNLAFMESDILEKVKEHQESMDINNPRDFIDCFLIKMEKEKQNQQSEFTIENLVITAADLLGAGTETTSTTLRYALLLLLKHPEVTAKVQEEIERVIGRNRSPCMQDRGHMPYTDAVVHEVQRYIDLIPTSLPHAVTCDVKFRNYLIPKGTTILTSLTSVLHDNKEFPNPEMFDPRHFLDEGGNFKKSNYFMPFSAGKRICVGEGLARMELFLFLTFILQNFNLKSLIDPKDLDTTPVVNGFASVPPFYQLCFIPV

[5] = species: Mus musculus; assay: Drug recovery in mouse; format: ADME, organism-based; details: in vivo
[6] = tested on: Serum; assay: Drug level in healthy obese adult male human serum at 25 mg, po administered as single dose after 4 hrs by HPLC method; format: ADME, organism-based; details: in vivo
[7] = target: T2, Cytochrome P450 1A2 (Homo sapiens, UniProt P05177); assay: Drug metabolism assessed as human recombinant CYP1A2-mediated metabolite formation at 10 uM after 60 mins by HPLC method; format: ADME; details: recombinant enzyme, 1 h
T2 sequence (P05177 whole entry): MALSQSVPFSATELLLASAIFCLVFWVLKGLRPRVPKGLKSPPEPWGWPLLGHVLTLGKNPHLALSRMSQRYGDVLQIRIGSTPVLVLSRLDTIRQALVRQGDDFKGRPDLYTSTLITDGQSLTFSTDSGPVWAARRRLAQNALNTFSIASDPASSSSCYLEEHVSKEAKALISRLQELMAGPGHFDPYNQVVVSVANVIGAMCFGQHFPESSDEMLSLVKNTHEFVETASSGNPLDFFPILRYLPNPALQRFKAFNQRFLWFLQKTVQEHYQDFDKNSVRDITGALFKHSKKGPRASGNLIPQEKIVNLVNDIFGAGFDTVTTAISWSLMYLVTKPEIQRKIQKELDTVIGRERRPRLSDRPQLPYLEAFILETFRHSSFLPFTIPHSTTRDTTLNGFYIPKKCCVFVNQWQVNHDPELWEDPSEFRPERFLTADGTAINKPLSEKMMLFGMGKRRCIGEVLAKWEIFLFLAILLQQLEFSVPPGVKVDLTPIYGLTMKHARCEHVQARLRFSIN

[8] = tested on: Serum; assay: AUC in healthy obese adult male human serum at 25 mg, po administered as single dose after 48 hrs by HPLC method; format: ADME, organism-based, Plasma; set-up: time < 48 hr, dose 25 mg, route oral; details: in vivo
[9] = tested on: Homo sapiens; assay: Tmax in healthy obese adult male human assessed as total radioactivity at 25 mg, po administered as single dose; format: ADME, organism-based; details: in vivo
[10] = tested on: Serum; assay: Drug level in healthy obese adult male human serum at 25 mg, po administered as single dose after 24 hrs by HPLC method; format: ADME, organism-based; details: in vivo
[11] = target: Cytochrome P450 2D6 (Homo sapiens, UniProt P10635); assay: Drug metabolism assessed as human recombinant CYP2D6-mediated metabolite formation at 10 uM after 60 mins by HPLC method; format: ADME; details: recombinant enzyme, 1 h
Cytochrome P450 2D6, sequence (P10635 whole entry): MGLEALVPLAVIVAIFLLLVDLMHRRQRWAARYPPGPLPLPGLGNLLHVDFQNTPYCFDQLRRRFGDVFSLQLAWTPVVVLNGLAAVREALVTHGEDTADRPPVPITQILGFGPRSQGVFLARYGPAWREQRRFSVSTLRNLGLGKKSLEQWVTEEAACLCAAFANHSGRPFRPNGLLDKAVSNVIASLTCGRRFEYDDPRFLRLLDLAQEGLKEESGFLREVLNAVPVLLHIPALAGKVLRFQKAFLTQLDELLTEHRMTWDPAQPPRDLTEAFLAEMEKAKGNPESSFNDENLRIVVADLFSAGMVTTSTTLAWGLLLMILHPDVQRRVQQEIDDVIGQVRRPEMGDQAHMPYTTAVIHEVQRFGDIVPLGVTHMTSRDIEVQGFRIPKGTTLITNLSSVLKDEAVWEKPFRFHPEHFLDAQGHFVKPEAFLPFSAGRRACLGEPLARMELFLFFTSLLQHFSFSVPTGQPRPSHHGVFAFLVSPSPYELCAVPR

[12] = tested on: Serum; assay: Drug level in healthy obese adult male human serum at 25 mg, po administered as single dose after 48 hrs by HPLC method; format: ADME, organism-based; details: in vivo
[13] = target: T3, Cytochrome P450 1A1 (Homo sapiens, UniProt P04798); assay: Drug metabolism assessed as human recombinant CYP1A1-mediated metabolite formation at 10 uM after 60 mins by HPLC method; format: ADME; details: recombinant enzyme, 1 h
T3 sequence (P04798 whole entry): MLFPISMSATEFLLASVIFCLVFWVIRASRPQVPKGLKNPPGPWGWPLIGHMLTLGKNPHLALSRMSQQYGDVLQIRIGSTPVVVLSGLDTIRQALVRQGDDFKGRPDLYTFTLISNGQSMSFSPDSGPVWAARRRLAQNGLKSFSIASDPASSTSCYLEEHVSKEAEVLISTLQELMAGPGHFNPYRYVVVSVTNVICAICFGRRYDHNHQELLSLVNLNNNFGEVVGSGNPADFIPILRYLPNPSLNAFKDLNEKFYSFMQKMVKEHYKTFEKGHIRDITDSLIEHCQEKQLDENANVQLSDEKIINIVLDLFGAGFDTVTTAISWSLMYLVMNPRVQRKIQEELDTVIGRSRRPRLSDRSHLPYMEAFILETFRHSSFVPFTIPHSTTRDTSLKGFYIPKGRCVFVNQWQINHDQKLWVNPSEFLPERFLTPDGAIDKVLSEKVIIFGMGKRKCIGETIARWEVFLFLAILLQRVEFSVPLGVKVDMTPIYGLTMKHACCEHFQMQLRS

[14] = tested on: Serum; assay: Total drug level in healthy obese adult male human serum at 25 mg, po administered as single dose after 48 hrs by HPLC method; format: ADME, organism-based; details: in vivo
[15] = tested on: Homo sapiens; assay: AUC (0 to infinity) in healthy obese adult male human assessed as total radioactivity at 25 mg, po administered as single dose; format: ADME, organism-based, Plasma; set-up: dose 25 mg, time infinity, route oral; details: in vivo
[16] = target: Cytochrome P450 2E1 (Homo sapiens, UniProt P05181); assay: Drug metabolism assessed as human recombinant CYP2E1-mediated metabolite formation at 10 uM after 60 mins by HPLC method; format: ADME; details: recombinant enzyme, 1 h
Cytochrome P450 2E1, sequence (P05181 whole entry): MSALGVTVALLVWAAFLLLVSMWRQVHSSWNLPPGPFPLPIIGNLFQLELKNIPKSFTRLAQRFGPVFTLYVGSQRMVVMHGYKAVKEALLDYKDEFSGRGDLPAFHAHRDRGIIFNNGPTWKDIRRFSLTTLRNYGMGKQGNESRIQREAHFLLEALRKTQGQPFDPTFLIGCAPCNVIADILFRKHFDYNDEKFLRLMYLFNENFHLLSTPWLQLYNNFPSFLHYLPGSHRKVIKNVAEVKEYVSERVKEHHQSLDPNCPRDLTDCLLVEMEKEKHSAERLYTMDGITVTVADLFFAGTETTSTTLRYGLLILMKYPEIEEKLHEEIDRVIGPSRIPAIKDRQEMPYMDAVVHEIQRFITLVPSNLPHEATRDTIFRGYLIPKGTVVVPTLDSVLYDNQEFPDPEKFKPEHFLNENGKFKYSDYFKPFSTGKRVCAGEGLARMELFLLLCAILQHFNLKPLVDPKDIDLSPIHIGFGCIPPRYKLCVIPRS

[17] = target: Cytochrome P450 2C9 (Homo sapiens, UniProt P11712); assay: Drug metabolism assessed as human recombinant CYP2C9-mediated metabolite formation at 10 uM after 60 mins by HPLC method; format: ADME; details: recombinant enzyme, 1 h
Cytochrome P450 2C9, sequence (P11712 whole entry): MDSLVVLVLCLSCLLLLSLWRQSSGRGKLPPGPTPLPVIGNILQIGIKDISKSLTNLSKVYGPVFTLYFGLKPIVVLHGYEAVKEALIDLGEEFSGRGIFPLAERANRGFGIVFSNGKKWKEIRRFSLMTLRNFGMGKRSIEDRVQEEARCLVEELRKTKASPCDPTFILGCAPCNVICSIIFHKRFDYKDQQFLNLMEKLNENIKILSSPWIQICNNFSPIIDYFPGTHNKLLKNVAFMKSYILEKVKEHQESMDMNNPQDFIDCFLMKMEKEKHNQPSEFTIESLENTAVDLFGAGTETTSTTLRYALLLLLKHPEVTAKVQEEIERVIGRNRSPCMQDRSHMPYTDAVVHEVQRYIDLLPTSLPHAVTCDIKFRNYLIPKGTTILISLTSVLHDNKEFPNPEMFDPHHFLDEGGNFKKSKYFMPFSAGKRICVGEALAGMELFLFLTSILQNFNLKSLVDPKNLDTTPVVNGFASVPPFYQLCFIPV

[18] = species: Canis familiaris; assay: Drug recovery in dog; format: ADME, organism-based, Canis lupus familiaris; details: in vivo
[19] = tested on: Homo sapiens; assay: AUC (0 to last) in healthy obese adult male human assessed as total radioactivity at 25 mg, po administered as single dose; format: ADME, organism-based, Plasma; details: in vivo
[20] = tested on: Homo sapiens; assay: Terminal elimination half life in healthy obese adult male human assessed as total radioactivity at 25 mg, po administered as single dose; format: ADME, organism-based; details: in vivo
[21] = tested on: Serum; assay: Drug level in healthy obese adult male human serum at 25 mg, po administered as single dose after 12 hrs by HPLC method; format: ADME, organism-based; details: in vivo
[22] = tested on: Serum; assay: Drug level in serum of healthy obese adult male human treated with [14C]CP-945,598 at 25 mg, po administered as single dose after 12 hrs by HPLC method; format: ADME, organism-based; details: in vivo
[23] = tested on: Serum; assay: Total drug level in serum of healthy obese adult male human treated with [14C]CP-945,598 at 25 mg, po administered as single dose after 48 hrs by HPLC method; format: ADME, organism-based; details: in vivo
[24] = tested on: Serum; assay: Drug level in serum of healthy obese adult male human treated with [14C]CP-945,598 at 25 mg, po administered as single dose after 4 hrs by HPLC method; format: ADME, organism-based; details: in vivo
[25] = target: Cytochrome P450 3A4 (Homo sapiens, UniProt P08684); assay: Drug metabolism assessed as human recombinant CYP3A4-mediated metabolite formation after 60 mins by HPLC method; format: ADME; details: recombinant enzyme, 1 h
Cytochrome P450 3A4, sequence (P08684 whole entry): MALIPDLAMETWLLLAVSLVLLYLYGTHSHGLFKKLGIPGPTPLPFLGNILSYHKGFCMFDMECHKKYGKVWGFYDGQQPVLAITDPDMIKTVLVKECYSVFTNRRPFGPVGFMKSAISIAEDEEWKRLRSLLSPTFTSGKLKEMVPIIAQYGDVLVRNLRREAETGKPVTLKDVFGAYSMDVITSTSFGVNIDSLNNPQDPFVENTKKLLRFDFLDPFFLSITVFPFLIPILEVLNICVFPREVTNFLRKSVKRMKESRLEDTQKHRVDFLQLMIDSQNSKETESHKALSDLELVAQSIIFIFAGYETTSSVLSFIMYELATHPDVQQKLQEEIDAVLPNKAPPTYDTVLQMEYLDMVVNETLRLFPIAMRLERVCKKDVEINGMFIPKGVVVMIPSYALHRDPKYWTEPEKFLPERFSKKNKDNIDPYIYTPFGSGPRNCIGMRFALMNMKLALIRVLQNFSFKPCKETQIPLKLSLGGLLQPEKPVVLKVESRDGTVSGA

[26] = tested on: Serum; assay: AUC in serum of healthy obese adult male human treated with [14C]CP-945,598 at 25 mg, po administered as single dose after 48 hrs by HPLC method; format: ADME, organism-based; set-up: time < 48 hr, dose 25 mg, route oral; details: in vivo
[27] = tested on: Serum; assay: Drug level in serum of healthy obese adult male human treated with [14C]CP-945,598 at 25 mg, po administered as single dose after 48 hrs by HPLC method; format: ADME, organism-based; details: in vivo
[28] = tested on: Serum; assay: Drug level in serum of healthy obese adult male human treated with [14C]CP-945,598 at 25 mg, po administered as single dose after 24 hrs by HPLC method; format: ADME, organism-based; details: in vivo
[29] = tested on: Homo sapiens; assay: Total drug excretion in healthy obese adult male human treated with [14C]CP-945,598 at 25 mg, po administered as single dose after 0 to 384 hrs hrs by HPLC method; format: ADME, organism-based; details: in vivo
[30] = Drug excretion in feces of healthy obese adult male human treated with [14C]CP-945,598 at 25 mg, po administered as single dose after 0 to 384 hrs hrs by HPLC method; format: ADME, organism-based; details: in vivo
[31] = tested on: Homo sapiens; assay: Terminal elimination half life in healthy obese adult male human treated with [14C]CP-945,598 at 25 mg, po administered as single dose; format: ADME, organism-based; details: in vivo
[32] = tested on: Homo sapiens; assay: Tmax in healthy obese adult male human treated with [14C]CP-945,598 at 25 mg, po administered as single dose; format: ADME, organism-based; details: in vivo
[33] = tested on: Homo sapiens; assay: Cmax in healthy obese adult male human treated with [14C]CP-945,598 at 25 mg, po administered as single dose; format: ADME, organism-based; set-up: dose 25 mg, route oral; details: in vivo
[34] = Drug excretion in urine of healthy obese adult male human treated with [14C]CP-945,598 at 25 mg, po administered as single dose after 0 to 384 hrs hrs by HPLC method; format: ADME, organism-based; details: in vivo
[35] = tested on: Homo sapiens; assay: AUC (0 to last) in healthy obese adult male human treated with [14C]CP-945,598 at 25 mg, po administered as single dose; format: ADME, organism-based, Plasma; set-up: dose 25 mg, route oral, time 0 - last; details: in vivo
[36] = tested on: Homo sapiens; assay: AUC (0 to infinity) in healthy obese adult male human treated with [14C]CP-945,598 at 25 mg, po administered as single dose; format: ADME, organism-based, Plasma; set-up: dose 25 mg, time infinity, route oral; details: in vivo

Drug metabolism [1]: metabolite_not_detected
Cmax [2]: 74 ngequiv/g
Drug recovery [3]: 98%
Drug metabolism [4]: metabolite_not_detected
Drug recovery [5]: 98%
Drug uptake [6]: 11.5 ngequiv/g
Drug metabolism [7]: metabolite_not_detected
AUC [8]: 297 ngequiv.hr/g
Tmax [9]: 6 h
Drug uptake [10]: 6.4 ngequiv/g
Drug metabolism [11]: metabolite_not_detected
Drug uptake [12]: 2.7 ngequiv/g
Drug metabolism [13]: metabolite_not_detected
Drug uptake [14]: 12.1 ngequiv/g
AUC [15]: 9434 ng/h/mL
Drug metabolism [16]: metabolite_not_detected
Drug metabolism [17]: metabolite_not_detected
Drug recovery [18]: 99%
AUClast [19]: 8298 ngequiv.hr/g
beta t1/2 [20]: 190 h
Drug uptake [21]: 8 ngequiv/g
SMILES: CCNC1(C(N)=O)CCN(c2ncnc3c2n[14c](-c2ccccc2Cl)n3-c2ccc(Cl)cc2)CC1.Cl

Drug uptake [22]: 3.6 ngequiv/g
Drug uptake [23]: 12.6 ngequiv/g
Drug uptake [24]: 4.5 ngequiv/g
Drug metabolism [25]: 26.9%
AUC [26]: 309 ngequiv.hr/g
Drug uptake [27]: 9.7 ngequiv/g
Drug uptake [28]: 7.2 ngequiv/g
SMILES: O=C1CCN(c2ncnc3c2nc(-c2ccccc2Cl)n3-c2ccc(Cl)cc2)CC1

Drug excretion [29]: 6.3%
Drug excretion [30]: 6.3%
SMILES: NC(=O)C1(NC2O[C@H](CO)[C@@H](O)[C@H]2O)CCN(c2ncnc3c2nc(-c2ccccc2Cl)n3-c2ccc(Cl)cc2)CC1 (stereo not given in full)

beta t1/2 [31]: 139 h
Tmax [32]: 6.8 h
Drug uptake [22]: 38.1 ngequiv/g
Drug uptake [23]: 57.3 ngequiv/g
Cmax [33]: 42 ng/mL
Drug uptake [24]: 28.4 ngequiv/g
Drug metabolism [25]: 48.1%
Drug excretion [34]: 2.3%
AUClast [35]: 3730 ng·h/mL
AUC [26]: 1401 ngequiv.hr/g
AUC [36]: 3970 ng·h/mL
Drug excretion [29]: 6.8%
Drug uptake [27]: 23.1 ngequiv/g
Drug excretion [30]: 4.5%
Drug uptake [28]: 31.8 ngequiv/g
SMILES: NC(=O)C1(N)CCN(c2ncnc3c2nc(-c2ccccc2Cl)n3-c2ccc(Cl)cc2)CC1
